# Laboratory results published in BigSolDB 2.1.
compound,measurement,setting,value
Oc1ccc(Cl)cc1C=Nc1ccccn1,solubility (mole fraction),"in THF, 268.15 K",0.0285
same,solubility (mole fraction),"in THF, 273.15 K",0.0323
same,solubility (mole fraction),"in THF, 278.15 K",0.0362
same,solubility (mole fraction),"in THF, 283.15 K",0.0406
same,solubility (mole fraction),"in THF, 288.15 K",0.0466
same,solubility (mole fraction),"in THF, 293.15 K",0.0545
same,solubility (mole fraction),"in THF, 298.15 K",0.0649
same,solubility (mole fraction),"in THF, 303.15 K",0.0735
same,solubility (mole fraction),"in dichloromethane, 268.15 K",0.00836
same,solubility (mole fraction),"in dichloromethane, 273.15 K",0.0124
same,solubility (mole fraction),"in dichloromethane, 278.15 K",0.0166
same,solubility (mole fraction),"in dichloromethane, 283.15 K",0.0193
same,solubility (mole fraction),"in dichloromethane, 288.15 K",0.0247
same,solubility (mole fraction),"in dichloromethane, 293.15 K",0.0306
same,solubility (mole fraction),"in dichloromethane, 298.15 K",0.0355
same,solubility (mole fraction),"in dichloromethane, 303.15 K",0.0429
same,solubility (mole fraction),"in diethyl ether, 268.15 K",0.00329
same,solubility (mole fraction),"in diethyl ether, 273.15 K",0.00427
same,solubility (mole fraction),"in diethyl ether, 278.15 K",0.00513
same,solubility (mole fraction),"in diethyl ether, 283.15 K",0.00605
same,solubility (mole fraction),"in diethyl ether, 288.15 K",0.00728
same,solubility (mole fraction),"in diethyl ether, 293.15 K",0.00844
same,solubility (mole fraction),"in diethyl ether, 298.15 K",0.0105
same,solubility (mole fraction),"in diethyl ether, 303.15 K",0.0121
same,solubility (mole fraction),"in toluene, 268.15 K",0.0103
same,solubility (mole fraction),"in toluene, 273.15 K",0.0111
same,solubility (mole fraction),"in toluene, 278.15 K",0.0136
same,solubility (mole fraction),"in toluene, 283.15 K",0.017
same,solubility (mole fraction),"in toluene, 288.15 K",0.0192
same,solubility (mole fraction),"in toluene, 293.15 K",0.0228
same,solubility (mole fraction),"in toluene, 298.15 K",0.0277
same,solubility (mole fraction),"in toluene, 303.15 K",0.0339
Oc1ccccc1/C=N/c1ccccn1,solubility (mole fraction),"in diethyl ether, 268.15 K",0.0581
same,solubility (mole fraction),"in diethyl ether, 273.15 K",0.0673
same,solubility (mole fraction),"in diethyl ether, 278.15 K",0.0873
same,solubility (mole fraction),"in diethyl ether, 283.15 K",0.107
same,solubility (mole fraction),"in diethyl ether, 288.15 K",0.14
same,solubility (mole fraction),"in diethyl ether, 293.15 K",0.17
same,solubility (mole fraction),"in diethyl ether, 298.15 K",0.231
same,solubility (mole fraction),"in ethanol, 268.15 K",0.0099
same,solubility (mole fraction),"in ethanol, 273.15 K",0.0121
same,solubility (mole fraction),"in ethanol, 278.15 K",0.0152
same,solubility (mole fraction),"in ethanol, 283.15 K",0.0199
same,solubility (mole fraction),"in ethanol, 288.15 K",0.0266
same,solubility (mole fraction),"in ethanol, 293.15 K",0.035
same,solubility (mole fraction),"in ethanol, 298.15 K",0.0489
same,solubility (mole fraction),"in methanol, 268.15 K",0.00796
same,solubility (mole fraction),"in methanol, 273.15 K",0.0107
same,solubility (mole fraction),"in methanol, 278.15 K",0.0146
same,solubility (mole fraction),"in methanol, 283.15 K",0.0187
same,solubility (mole fraction),"in methanol, 288.15 K",0.0255
same,solubility (mole fraction),"in methanol, 293.15 K",0.0346
same,solubility (mole fraction),"in methanol, 298.15 K",0.0503
same,solubility (mole fraction),"in toluene, 268.15 K",0.135
same,solubility (mole fraction),"in toluene, 273.15 K",0.174
same,solubility (mole fraction),"in toluene, 278.15 K",0.215
same,solubility (mole fraction),"in toluene, 283.15 K",0.26
same,solubility (mole fraction),"in toluene, 288.15 K",0.316
same,solubility (mole fraction),"in toluene, 293.15 K",0.361
same,solubility (mole fraction),"in toluene, 298.15 K",0.423
